Source: patent US20240158418A1 (C4 Therapeutics, Inc., priority 2021, published 2024)
Like-named read-outs stand apart in the source and are kept apart here.

Assays:
Assay type in all cases: cell-based
EGFR L858R-T790M = target: T1, EGFR L858R-T790M (Homo sapiens, UniProt P00533, L858R/T790M); test: EGFR degradation, Total EGFR (L858R-specific) HTRF, NCI-H1975; conditions: 6 hours
T1 construct: NCI-H1975 (harboring EGFR heterozygous L858R-T790M mutations); host or cells: NCI-H1975
How it was run: (§1)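 FRET signal from HTRF kits measured phospho-EGFR at pY1068 or total EGFR after 6 h treatment at 37 °C. Compounds ran as 11-point half-log dilutions from 10 μM in duplicate, in cells in phenol red-free RPMI with 10% FBS. Concentrations giving 50% inhibition or degradation were reported as IC50 or DC50.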

pY1068 EGFR L858R-T790M = target: T2, pY1068 EGFR L858R-T790M (Homo sapiens, UniProt P00533, L858R/T790M); test: Phospho-EGFR (pY1068) inhibition HTRF, NCI-H1975; conditions: 6 hours, read-out: pEGFR IC50
T2 construct: NCI-H1975 (harboring EGFR heterozygous L858R-T790M mutations); host or cells: NCI-H1975
Text: (§2) NCI-H1975 (harboring EGFR heterozygous L858R-T790M mutations) and NCI-H3255 (harboring EGFR heterozygous L858R mutation) were purchased from ATCC and NCI, respectively. NCI-H1975+CS (harboring EGFR heterozygous L858R-T790M-C797S mutations) was generated using CRISPR technology to introduce the additional C797S mutation by Horizon Discovery. A431 (harboring EGFR wildtype) was purchased from ATCC. RPMI 1640 no-phenol red medium and fetal bovine serum (FBS) were purchased from Gibco (Grand Island, NY, USA). Cell culture flasks and 384-well microplates were acquired from VWR (Radnor, PA, USA). Phosphorylated (pY1068) EGFR and Total EGFR (using L858R-specific detection antibody and pan-EGFR antibody for EGFR mutant cell lines and EGFR wild-type cell lines, respectively) HTRF assay kits were purchased from Cisbio (Bedford, MA, USA).
(§3) Degradation of EGFR protein containing L858R mutation or wild-type was determined based on quantification of FRET signal using a Total EGFR (L858R-specific or pan-EGFR detecting) HTRF assay kit. Phospho-EGFR (pEGFR) inhibition was determined based on quantification of FRET signal using a pY1068 EGFR HTRF assay kit. In separate assay plates, test compounds were added to the 384-well plate from a top concentration of 10 μM with 11 points, half log titration in duplicates. For each assay, 12.5 uL of cells suspended in assay media (RPMI 1640 no-phenol red medium+10% FBS) at cell densities indicated for each cell line in Table 8 below were dispensed using a multi-channel pipette to 384-well low volume white HTRF microplates containing a duplicate concentration range of test compounds and DMSO controls. The plates were kept at 37° C. with 5% CO2 for 6 hours and then incubated with either phospho EGFR or Total EGFR HTRF detection antibodies according to the cell line and EGFR mutant being assayed. Cells treated in the absence of the test compound were the negative control. Positive control was set by wells containing all reagents but no cells. FRET signal was acquired on EnVision™ Multilabel Reader (PerkinElmer, Santa Clara, CA, USA). Compound concentration that achieves 50% degradation and inhibition was reported as DC50 and IC50, respectively.

EGFR L858R-T790M-C797S = target: T3, EGFR L858R-T790M-C797S (Homo sapiens, UniProt P00533, C797S/L858R/T790M); test: EGFR degradation, Total EGFR (L858R-specific) HTRF, NCI-H1975+CS; conditions: 6 hours
T3 construct: generated using CRISPR technology to introduce the additional C797S mutation by Horizon Discovery; host or cells: NCI-H1975+CS (CRISPR knock-in of C797S)
How it was run: as §1

pY1068 EGFR L858R = target: T4, pY1068 EGFR L858R (Homo sapiens, UniProt P00533, L858R); test: Phospho-EGFR (pY1068) inhibition HTRF, NCI-H3255; conditions: 6 hours, read-out: pEGFR IC50
T4 construct: NCI-H3255 (harboring EGFR heterozygous L858R mutation); host or cells: NCI-H3255
Text: as §2, §3

EGFR L858R = EGFR L858R (Homo sapiens, UniProt P00533, L858R); test: EGFR degradation, Total EGFR (L858R-specific) HTRF, NCI-H3255; set-up: NCI-H3255 (harboring EGFR heterozygous L858R mutation); host or cells: NCI-H3255; conditions: 6 hours
How it was run: as §1

[1] = target: T5, pY1068 EGFR L858R-T790M-C797S (Homo sapiens, UniProt P00533, C797S/L858R/T790M); test: Phospho-EGFR (pY1068) inhibition HTRF, NCI-H1975+CS; conditions: 6 hours, read-out: pEGFR IC50
T5 construct: generated using CRISPR technology to introduce the additional C797S mutation by Horizon Discovery; host or cells: NCI-H1975+CS (CRISPR knock-in of C797S)
Text: as §2, §3

[2] = H1975 (L858R-T790M), read-out: tEGFR DC50
[3] = Table 9A, NCI-H1975 cells, Total EGFR HTRF, read-out: H1975 EGFR DC50
[4] = Table 9A, NCI-H1975+CS cells, Total EGFR HTRF, read-out: H1975+ CS EGFR DC50
[5] = Table 9A, NCI-H3255 cells, Total EGFR HTRF, read-out: H3255 EGFR DC50

T1 sequence (P00533 25-1210 T790M/L858R): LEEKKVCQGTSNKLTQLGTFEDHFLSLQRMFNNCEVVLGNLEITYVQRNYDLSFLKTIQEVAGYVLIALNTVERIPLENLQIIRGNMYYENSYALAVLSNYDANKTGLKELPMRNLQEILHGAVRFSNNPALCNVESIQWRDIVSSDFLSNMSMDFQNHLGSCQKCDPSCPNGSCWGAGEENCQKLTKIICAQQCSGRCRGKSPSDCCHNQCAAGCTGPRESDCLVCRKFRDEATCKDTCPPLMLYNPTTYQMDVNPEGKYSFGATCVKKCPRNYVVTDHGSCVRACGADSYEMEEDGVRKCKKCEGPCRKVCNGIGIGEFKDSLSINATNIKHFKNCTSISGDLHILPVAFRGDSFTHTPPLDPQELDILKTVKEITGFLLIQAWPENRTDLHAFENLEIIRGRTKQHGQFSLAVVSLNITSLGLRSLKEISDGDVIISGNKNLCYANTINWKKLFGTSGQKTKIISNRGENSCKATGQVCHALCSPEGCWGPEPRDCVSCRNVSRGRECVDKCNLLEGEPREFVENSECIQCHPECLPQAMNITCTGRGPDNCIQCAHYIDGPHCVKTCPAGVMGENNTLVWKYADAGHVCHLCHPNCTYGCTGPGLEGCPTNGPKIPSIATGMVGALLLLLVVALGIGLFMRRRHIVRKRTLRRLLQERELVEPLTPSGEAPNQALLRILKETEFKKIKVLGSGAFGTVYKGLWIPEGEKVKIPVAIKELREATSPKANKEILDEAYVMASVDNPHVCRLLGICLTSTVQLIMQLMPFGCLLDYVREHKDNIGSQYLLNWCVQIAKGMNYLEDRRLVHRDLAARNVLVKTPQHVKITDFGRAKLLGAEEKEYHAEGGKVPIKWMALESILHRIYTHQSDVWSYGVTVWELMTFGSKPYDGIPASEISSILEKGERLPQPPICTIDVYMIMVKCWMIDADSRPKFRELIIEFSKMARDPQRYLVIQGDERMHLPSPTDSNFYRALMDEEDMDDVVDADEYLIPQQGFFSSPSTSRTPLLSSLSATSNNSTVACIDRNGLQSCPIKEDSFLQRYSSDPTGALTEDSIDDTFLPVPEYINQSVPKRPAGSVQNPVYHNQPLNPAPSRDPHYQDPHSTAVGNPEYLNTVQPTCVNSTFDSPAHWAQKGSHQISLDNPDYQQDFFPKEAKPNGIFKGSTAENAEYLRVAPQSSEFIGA
Chain of EGFR L858R (P00533 25-1210 L858R): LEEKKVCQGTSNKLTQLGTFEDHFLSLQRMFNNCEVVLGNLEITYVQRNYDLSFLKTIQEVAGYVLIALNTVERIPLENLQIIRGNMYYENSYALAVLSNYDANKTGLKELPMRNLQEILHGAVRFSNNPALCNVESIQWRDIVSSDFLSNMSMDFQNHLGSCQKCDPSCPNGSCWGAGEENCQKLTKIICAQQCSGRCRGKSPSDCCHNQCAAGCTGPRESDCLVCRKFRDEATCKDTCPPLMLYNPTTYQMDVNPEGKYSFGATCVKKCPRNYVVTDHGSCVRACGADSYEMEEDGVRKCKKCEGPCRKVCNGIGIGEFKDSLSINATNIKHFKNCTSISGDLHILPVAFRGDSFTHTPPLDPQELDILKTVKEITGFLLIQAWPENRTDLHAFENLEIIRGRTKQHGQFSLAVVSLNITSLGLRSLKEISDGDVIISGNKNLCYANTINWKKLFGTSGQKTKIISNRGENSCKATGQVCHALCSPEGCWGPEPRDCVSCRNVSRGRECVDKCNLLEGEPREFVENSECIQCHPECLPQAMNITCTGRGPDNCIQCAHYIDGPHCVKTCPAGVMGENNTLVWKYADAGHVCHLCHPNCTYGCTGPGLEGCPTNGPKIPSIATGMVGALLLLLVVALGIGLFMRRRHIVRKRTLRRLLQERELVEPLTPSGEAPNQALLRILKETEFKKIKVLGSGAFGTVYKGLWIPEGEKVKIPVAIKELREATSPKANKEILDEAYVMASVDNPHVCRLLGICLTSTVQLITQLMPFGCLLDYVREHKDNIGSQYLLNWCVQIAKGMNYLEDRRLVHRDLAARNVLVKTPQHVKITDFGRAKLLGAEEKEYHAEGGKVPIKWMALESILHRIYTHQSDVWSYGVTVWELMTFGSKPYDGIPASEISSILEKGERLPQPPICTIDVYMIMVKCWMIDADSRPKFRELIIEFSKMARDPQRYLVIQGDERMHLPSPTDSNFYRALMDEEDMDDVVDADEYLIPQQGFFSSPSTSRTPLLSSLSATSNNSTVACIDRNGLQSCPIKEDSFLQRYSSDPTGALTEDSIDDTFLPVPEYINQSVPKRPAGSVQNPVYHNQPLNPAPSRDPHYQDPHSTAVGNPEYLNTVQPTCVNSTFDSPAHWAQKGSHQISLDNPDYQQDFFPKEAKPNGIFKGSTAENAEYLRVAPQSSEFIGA
T3 sequence (P00533 25-1210 T790M/C797S/L858R): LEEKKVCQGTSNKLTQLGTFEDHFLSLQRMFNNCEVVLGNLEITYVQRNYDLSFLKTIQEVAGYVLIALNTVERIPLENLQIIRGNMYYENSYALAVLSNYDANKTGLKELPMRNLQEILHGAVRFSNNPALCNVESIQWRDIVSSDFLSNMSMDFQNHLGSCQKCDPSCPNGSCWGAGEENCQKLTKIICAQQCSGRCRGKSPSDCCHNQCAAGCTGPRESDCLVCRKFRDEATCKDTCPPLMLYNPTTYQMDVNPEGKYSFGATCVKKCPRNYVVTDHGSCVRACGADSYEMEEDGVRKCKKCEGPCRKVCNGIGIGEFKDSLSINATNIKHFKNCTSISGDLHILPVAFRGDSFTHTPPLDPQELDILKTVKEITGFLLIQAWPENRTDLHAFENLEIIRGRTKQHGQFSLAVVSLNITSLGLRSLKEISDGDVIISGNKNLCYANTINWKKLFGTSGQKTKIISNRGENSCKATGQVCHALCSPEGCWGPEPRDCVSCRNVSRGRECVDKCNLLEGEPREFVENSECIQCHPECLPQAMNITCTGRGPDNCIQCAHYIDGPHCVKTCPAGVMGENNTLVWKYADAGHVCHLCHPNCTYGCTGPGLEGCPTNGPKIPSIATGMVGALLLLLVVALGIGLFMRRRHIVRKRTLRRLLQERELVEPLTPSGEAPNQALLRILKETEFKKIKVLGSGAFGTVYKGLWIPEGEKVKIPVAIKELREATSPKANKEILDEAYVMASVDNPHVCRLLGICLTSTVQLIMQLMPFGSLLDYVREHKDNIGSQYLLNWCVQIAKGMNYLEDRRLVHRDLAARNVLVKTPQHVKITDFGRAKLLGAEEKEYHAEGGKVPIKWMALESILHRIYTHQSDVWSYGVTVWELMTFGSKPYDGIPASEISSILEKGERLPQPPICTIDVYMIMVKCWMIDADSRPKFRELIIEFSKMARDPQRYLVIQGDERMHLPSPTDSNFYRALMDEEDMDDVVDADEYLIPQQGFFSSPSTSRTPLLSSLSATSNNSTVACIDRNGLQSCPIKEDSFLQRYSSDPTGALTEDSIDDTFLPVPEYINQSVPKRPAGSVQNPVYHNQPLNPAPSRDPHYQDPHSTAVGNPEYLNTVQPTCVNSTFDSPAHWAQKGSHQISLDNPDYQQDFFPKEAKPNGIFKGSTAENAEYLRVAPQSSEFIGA
T2 sequence (P00533 25-1210 T790M/L858R): as the sequence (P00533 25-1210 T790M/L858R) above

| SMILES | DC50 (EGFR L858R-T790M; [3]) [nM] | DC50 (EGFR L858R-T790M-C797S; [4]) [nM] | DC50 (EGFR L858R; [5]) [nM] | further results |
| --- | --- | --- | --- | --- |
| O=C1CC[C@H](Nc2ccc(N3CCC(O)(CC(=O)N4CC5(CCN(c6ccc(-c7cc(F)c8c(c7)C(=O)N(C(C(=O)Nc7nccs7)c7ncn9c7CCC9)C8)cc6)CC5)C4)CC3)c(F)c2)C(=O)N1 (stereo partly shown) [Compound 12] | < 50 | – | – | DC50 (EGFR L858R-T790M; [2]): 15 nM; IC50 (pY1068 EGFR L858R-T790M): 20 nM |
| O=C1CCC(Nc2ccc(C3CCN(CC(=O)N4CC5(C4)CN(c4ccc(-c6cc(F)c7c(c6)C(=O)N(C(C(=O)Nc6nccs6)c6ncn8c6CCC8)C7)cc4)C5)CC3(F)F)cc2)C(=O)N1 (single isomer, unassigned) [Compound 4, 2-(6,7-dihydro-5H-pyrrolo[1,2-c]imidazol-1-yl)-2-(6-(4-(6-(2-(4-(4-((2,6-dioxopiperidin-3-yl)amino)phenyl)-3,3-difluoropiperidin-1-yl)acetyl)-2,6-diazaspiro[3.3]heptan-2-yl)phenyl)-4-fluoro-1-oxoisoindolin-2-yl)-N-(thiazol-2-yl)acetamide] | < 50 | – | – | DC50 (EGFR L858R-T790M; [2]): 15 nM; DC50 (EGFR L858R-T790M-C797S; H1975 + CS (L858R-T790M-C797S), read-out: tEGFR DC50): 33 nM; IC50 (pY1068 EGFR L858R-T790M): 15 nM; IC50 (pY1068 EGFR L858R): 16 nM; DC50 (EGFR L858R; H3255 (L858R), read-out: tEGFR DC50): 17 nM; IC50 [1]: 22 nM |
| O=C1CCC(Nc2ccc(C3CCN(CC(=O)N4CCC(Oc5ccc(-c6cc(F)c7c(c6)C(=O)N(C(C(=O)Nc6nccs6)c6ncn8c6CCC8)C7)cc5)CC4)CC3)cc2F)C(=O)N1 (stereo not shown) [Compound 34, 2-(6,7-dihydro-5H-pyrrolo[1,2-c]imidazol-1-yl)-2-(6-(4-((1-(2-(4-(4-((2,6-dioxopiperidin-3-yl)amino)-3-fluorophenyl)piperidin-1-yl)acetyl)piperidin-4-yl)oxy)phenyl)-4-fluoro-1-oxoisoindolin-2-yl)-N-(thiazol-2-yl)acetamide] | 50 to 150 | < 50 | < 50 | – |
| O=C1CC[C@@H](Nc2ccc(C3CCN(CC(=O)N4CCC(Oc5ccc(-c6cc(F)c7c(c6)C(=O)N(C(C(=O)Nc6nccs6)c6ncn8c6CCC8)C7)cc5)CC4)CC3)cc2)C(=O)N1 (stereo partly drawn) [Compound 33, 2-(6,7-dihydro-5H-pyrrolo[1,2-c]imidazol-1-yl)-2-[6-[4-[[1-[2-[4-[4-[[(3R)-2,6-dioxo-3-piperidyl]amino]phenyl]-1-piperidyl]acetyl]-4-piperidyl]oxy]phenyl]-4-fluoro-1-oxo-isoindolin-2-yl]-N-thiazol-2-yl-acetamide] | < 50 | < 50 | < 50 | – |
| O=C1CC[C@@H](Nc2ccc(N3CCC(O)(CC(=O)N4CC5(C4)CN(c4ccc(-c6cc(F)c7c(c6)C(=O)N(C(C(=O)Nc6nccs6)c6ncn8c6CCC8)C7)cc4)C5)CC3)c(F)c2)C(=O)N1 (stereo partly drawn) [Compound 98, 2-(6,7-dihydro-5H-pyrrolo[1,2-c]imidazol-1-yl)-2-[6-[4-[2-[2-[1-[4-[[(3R)-2,6-dioxo-3-piperidyl]-amino]-2-fluoro-phenyl]-4-hydroxy-4-piperidyl]acetyl]-2,6-diazaspiro[3.3]heptan-6-yl]phenyl]-4-fluoro-1-oxo-isoindolin-2-yl]-N-thiazol-2-yl-acetamide] | – | – | – | DC50 (EGFR L858R-T790M; Table 9B, NCI-H1975 cells, Total EGFR HTRF, read-out: H1975 EGFR DC50): < 50 nM; DC50 (EGFR L858R-T790M-C797S; Table 9B, NCI-H1975 C797S clone, Total EGFR HTRF, read-out: H1975 C797S clone EGFR DC50): < 50 nM; DC50 (EGFR L858R; Table 9B, NCI-H3255 cells, Total EGFR HTRF, read-out: H3255 EGFR DC50): < 50 nM |
| O=C1CCC(Nc2ccc(C3CCN(CC(=O)N4CCN(c5ccc(-c6cc(F)c7c(c6)C(=O)N(C(C(=O)Nc6nccs6)c6ncn8c6C[C@@H](F)C8)C7)cc5)CC4)CC3)cc2)C(=O)N1 (mixture of isomers) [Compound 43, (2RS)-2-[6-[4-[4-[2-[4-[4-[[(3RS)-2,6-Dioxo-3-piperidyl]amino]phenyl]-1-piperidyl]acetyl]piperazin-1-yl]phenyl]-4-fluoro-1-oxo-isoindolin-2-yl]-2-[(6R)-6-fluoro-6,7-dihydro-5H-pyrrolo[1,2-c]imidazol-1-yl]-N-thiazol-2-yl-acetamide] | < 50 | < 50 | < 50 | – |
| N#Cc1cc(NC2CCC(=O)NC2=O)ccc1C1CCN(CC(=O)N2CCC(c3ccc(-c4cc(F)c5c(c4)C(=O)N(C(C(=O)Nc4nccs4)c4ncn6c4CCC6)C5)cc3)CC2)CC1 (stereo not shown) [Compound 25, 2-(6-(4-(1-(2-(4-(2-cyano-4-((2,6-dioxopiperidin-3-yl)amino)phenyl)piperidin-1-yl)acetyl)piperidin-4-yl)phenyl)-4-fluoro-1-oxoisoindolin-2-yl)-2-(6,7-dihydro-5H-pyrrolo[1,2-c]imidazol-1-yl)-N-(thiazol-2-yl)acetamide] | < 50 | < 50 | < 50 | – |
